Like-named read-outs stand apart in the source and are kept apart here.
How the values were obtained:
leucémie P 388 = assay type: in vivo, souris hybrides CDF1
Excerpt: (§1) L'activité antitumorale a été testée in vivo sur différentes tumeurs selon le protocole général suivant : Toutes les souris mâles ou femelles sont inoculées par voie intrapéritonéale au jour Jo avec une quantité déterminée de cellules tumorales viables, variable selon la tumeur.
(§2) Elles sont ensuite réparties en différents lots. Chaque lot correspondant aux animaux traités par le produit à tester à une dose déterminée est composé de lO souris. Dans ce cas, le produit à tester est dissous dans l'eau distillée et il est administré, pendant n jours (J1-Jn) variables selon le protocole choisi, par voie intrapéritonéale à raison de 0,1 ml par lO g de poids des souris traitées, les doses du produit administré étant précisées dans les tableaux ci-dessous.
(§3) Le lot "Contrôle négatif", correspondant aux animaux qui ne sont pas traités par un produit, comprend 2 √N animaux, N étant égal au nombre total de souris traitées par un produit.
(§4) Enfin, tous lés essais sont conduits parallèlement à l'étude d'un lot appelé "Contrôle positif" de 10 animaux qui est traité par une molécule active, variable selon le protocole choisi, dans les mêmes conditions que les lots traités par le produit à tester, afin de valider l'essai.
(§5) L'activité antitumorale est évaluée en considérant l'augmentation du temps de survie des animaux traités par rapport à celui des animaux du lot "Contrôle négatif" selon la formule : • Jour médian de survie des animaux traités à une T/C = dose donnée de produit x 100 • Jour médian de survie des animaux "Contrôle négatif"
(§6) Un composé est considéré comme étant actif lorsque la valeur du rapport T/C est égale ou supérieure à 125 % selon le protocole retenu. Il est toxique lorsque cette valeur est égale ou inférieure à 85 %. Le produit est également considéré comme toxique lorsque la variation pondérale, exprimée en grammes et calculée par la formule : Poids moyen du lot mesuré au jour 5 - poids moyen du même lot au jour 1, est égale ou inférieure à -4g . a) Test de la leucémie P 388 (GERAN et al., Cancer Chemother, 1972, 2, 07-57).
Les essais sont effectués avec des souris hybrides CDF1 inoculées par voie intrapéritonéale avec […] leucémiques de la lignée P 388. Le composé à tester est administré pendant 5 jours (Jl-J5). Le contrôle positif du test est le 5-fluorouracile qui est administré dans les mêmes conditions.
[…] Un composé est considéré comme étant actif lorsque le rapport T/C est supérieur à 127 %.

leucémie L 1210 = assay: L 1210 leukemia test in vivo; design: species or system souris hybrides CDF1; settings: for Survivants: at day J 60
Excerpt: as §1, §2, §3, §4, §5, §6
b) Test de la leucémie L 1210 (GERAN et al., Cancer Chemother, 1972, 2, 07-57).
Les essais sont effectués avec des souris hybrides CDF1 inoculées avec 10^5 cellules leucémiques de la lignée L 1210. Le composé à tester est administré pendant 5 jours (J1-J5). Le contrôle positif du test est le 5-fluorouracile administré dans les mêmes conditions. Le nombre d'animaux survivants est évalué au jour J 60. Un composé est considéré comme étant actif lorsque le rapport T/C est supérieur ou égal à 125 %.

réticulosarcome M5-M5076 = assay: M5-M5076 reticulosarcoma test in vivo; design: species or system souris hybrides BDF1; settings: for Survivants: at day J 75
Excerpt: as §1, §2, §3, §4, §5, §6
d) Test du réticulosarcome M5-M5076.
Les essais sont effectués avec des souris hybrides BDF1 inoculées avec 10^6 cellules de la lignée M5-M5076. Le composé à tester est administré 5 fois successivement de façon séquentielle (Jl, 5, 9, 13, 17). Le contrôle positif du test est le cyclophosphamide administré dans les mêmes conditions. Le nombre d'animaux survivants est évalué au jour J 75. Un composé est considéré comme actif lorsque le rapport T/C est supérieur ou égal à 125 %.

[1] = 100 mg/kg i.p. J1, 5, 9, 13, 17
[2] = 150 mg/kg i.p. J1, 5, 9, 13, 17

CCN(CC)CCCNc1ncc(C)c2c1c1cnccc1n2C [Dérivé N° 4, [(diéthylamino-3 propyl-1)amino]-1 diméthyl-4,5 5-H pyrido[3',4':4,5]pyrrolo[3,2-c]pyridine]
Jour médian de survie (leucémie P 388; 5 mg/kg i.p. J1-J5): 14,25 | T/C % (leucémie P 388; 5 mg/kg i.p. J1-J5): 130% | Survivants (leucémie P 388; 5 mg/kg i.p. J1-J5, at day J 40): 0/10 | Jour médian de survie (leucémie P 388; 10 mg/kg i.p. J1-J5): 16,13 | T/C % (leucémie P 388; 10 mg/kg i.p. J1-J5): 147% | Survivants (leucémie P 388; 10 mg/kg i.p. J1-J5, at day J 40): 0/10 | Jour médian de survie (leucémie P 388; 20 mg/kg i.p. J1-J5): 18,0 | T/C % (leucémie P 388; 20 mg/kg i.p. J1-J5): 164% | Survivants (leucémie P 388; 20 mg/kg i.p. J1-J5, at day J 40): 0/10 | Jour médian de survie (leucémie P 388; 40 mg/kg i.p. J1-J5): 18,75 | T/C % (leucémie P 388; 40 mg/kg i.p. J1-J5): 172% | Survivants (leucémie P 388; 40 mg/kg i.p. J1-J5, at day J 40): 0/10 | Jour médian de survie (leucémie P 388; 50 mg/kg i.p. J1-J5): 25 | T/C % (leucémie P 388; 50 mg/kg i.p. J1-J5): 207% | Survivants (leucémie P 388; 50 mg/kg i.p. J1-J5, à J 42): 3/10 à J 42 | Jour médian de survie (leucémie P 388; 80 mg/kg i.p. J1-J5): 8,9 | T/C % (leucémie P 388; 80 mg/kg i.p. J1-J5): 81% | Survivants (leucémie P 388; 80 mg/kg i.p. J1-J5, at day J 40): 0/10 | Jour médian de survie (leucémie P 388; 1,25 mg/kg i.p. J1-J5): 12,6 | T/C % (leucémie P 388; 1,25 mg/kg i.p. J1-J5): 115% | Survivants (leucémie P 388; 1,25 mg/kg i.p. J1-J5, at day J 40): 0/10 | Jour médian de survie (leucémie P 388; 2,5 mg/kg i.p. J1-J5): 14,25 | T/C % (leucémie P 388; 2,5 mg/kg i.p. J1-J5): 130% | Survivants (leucémie P 388; 2,5 mg/kg i.p. J1-J5, at day J 40): 0/10 | Jour médian de survie (leucémie L 1210; 5 mg/kg i.p. J1-J5): 12,75 | T/C % (leucémie L 1210; 5 mg/kg i.p. J1-J5): 138% | Survivants (leucémie L 1210; 5 mg/kg i.p. J1-J5): 0 | Jour médian de survie (leucémie L 1210; 15 mg/kg i.p. J1-J5): 13,75 | T/C % (leucémie L 1210; 15 mg/kg i.p. J1-J5): 149% | Survivants (leucémie L 1210; 15 mg/kg i.p. J1-J5): 0 | Jour médian de survie (leucémie L 1210; 30 mg/kg i.p. J1-J5): 17,25 | T/C % (leucémie L 1210; 30 mg/kg i.p. J1-J5): 188% | Survivants (leucémie L 1210; 30 mg/kg i.p. J1-J5): 0 | Jour médian de survie (leucémie L 1210; 60 mg/kg i.p. J1-J5): 18,0 | T/C % (leucémie L 1210; 60 mg/kg i.p. J1-J5): 196% | Survivants (leucémie L 1210; 60 mg/kg i.p. J1-J5): 1 | Jour médian de survie (leucémie L 1210; 80 mg/kg i.p. J1-J5): 9,1 | T/C % (leucémie L 1210; 80 mg/kg i.p. J1-J5): 99% | Survivants (leucémie L 1210; 80 mg/kg i.p. J1-J5): 0 | Jour médian de survie (leucémie L 1210; 2,5 mg/kg i.p. J1-J5): 10,9 | T/C % (leucémie L 1210; 2,5 mg/kg i.p. J1-J5): 118% | Survivants (leucémie L 1210; 2,5 mg/kg i.p. J1-J5): 0 | Jour médian de survie (réticulosarcome M5-M5076; 10 mg/kg i.p. J1, 5, 9, 13, 17): 28,3 | T/C % (réticulosarcome M5-M5076; 10 mg/kg i.p. J1, 5, 9, 13, 17): 108% | Survivants (réticulosarcome M5-M5076; 10 mg/kg i.p. J1, 5, 9, 13, 17): 0 | Jour médian de survie (réticulosarcome M5-M5076; 25 mg/kg i.p. J1, 5, 9, 13, 17): 41,75 | T/C % (réticulosarcome M5-M5076; 25 mg/kg i.p. J1, 5, 9, 13, 17): 159% | Survivants (réticulosarcome M5-M5076; 25 mg/kg i.p. J1, 5, 9, 13, 17): 1 | Jour médian de survie (réticulosarcome M5-M5076; 50 mg/kg i.p. J1, 5, 9, 13, 17): 53,0 | T/C % (réticulosarcome M5-M5076; 50 mg/kg i.p. J1, 5, 9, 13, 17): 202% | Survivants (réticulosarcome M5-M5076; 50 mg/kg i.p. J1, 5, 9, 13, 17): 4 | Jour médian de survie (réticulosarcome M5-M5076; [1]): 48,0 | T/C % (réticulosarcome M5-M5076; [1]): 182% | Survivants (réticulosarcome M5-M5076; [1]): 2 | Jour médian de survie (réticulosarcome M5-M5076; [2]): 14,0 | T/C % (réticulosarcome M5-M5076; [2]): 53% | Survivants (réticulosarcome M5-M5076; [2]): 0
